Assays:
[1] = test system: Bursaphelenchus xylophilus; assay: Occurrence of pine wilt disease after trunk injection of induced resistance candidate materials, in vivo test in young red pine trees; details: red pine tree (Pinus densiflora), 30 days after inoculation; for Occurrence rate of pine wilt disease: Number of pine trees showing wilt symptoms / Number of pine trees used for the test: trunk injection 100 µℓ per tree; for Number of pine trees showing wilt symptoms only at growing points of a stem: trunk injection
Description: By using the 15 types of an induced resistance elicitors which have been known to induce the plant resistance against various diseases as candidates, their controlling effect against pine wilt disease was examined. The control efficacy of candidates against pine wilt disease was analyzed according to an in vivo test using red pine tree (Pinus densiflora) which was 2-year old young pine trees (diameter of 5.5 mm or so, and height of about 35 mm).
As a candidate group of an induced resistance material, two kinds of acibenzolar-S-methyl (ASM), TDL (Tiadinil), ITL (Isotianil), PBZ (Probenzole), AZO (Azoxystrobin), VMA (Validamycin A), MeJA (Methyl jasmonate), BABA (DL-3-aminobutyric acid), 2,3-BDO (2,3-Butanediol), SA (salicyclic acid), GABA (r-Aminobutyric acid), glucan (Glucan), ER (Ergosterol), and AZA (Azelaic acid) were used. Only the use of acibenzolar-S-methyl is according to the invention. Injection of the chemicals was carried out by trunk injection method, i.e., at an angle of 45°, a borehole was created by using an electric drill with thickness of 1.5 mm on a pine stem part that is 5 to 10 cm above the soil surface, a tip (200 µℓ) was inserted to the hole, and, after dissolving the candidate material at concentration level of 200, 20, or 2 µg/mℓ in each solvent, the solution was injected in an amount of 100 µℓ per pine tree. After the injection of the chemical agent, the end part of the tip was sealed with parafilm.
The pine tree wilt nematodes (Bursaphelenchus xylophilus, National Institute of Forest Science (NIFoS), South Korea) was incubated at 25°C by feeding them with Botrytis cinerea, which have been cultured on a potato dextrose agar (PDA) medium, and after one week incubation, they were collected by Baermann funnel method and were adjusted to the level of 20,000 worms/mℓ by examining the number of the worms under an optical microscope. One week after the chemical treatment, the inoculation of the pine tree wilt nematodes was carried out by tree barking inoculation of 100 µℓ, i.e., 2,000 worms, per tree, and the result was determined 30 days after the inoculation. […] [Table 1] Occurrence rate of pine wilt disease in candidate group of induced resistance materials

[2] = test system: Cytochrome_P450; assay: qRT-PCR expression of induced resistance gene in pine tree callus; assay type: cell-based; details: for Expression of induced resistance gene, Cytochrome_P450: 24 hours
Description: For in vitro analysis of induced resistance, the expression of PR genes and other plant defense-related genes was determined, which are evolved in various defense mechanisms including induced resistance. The primers of sixteen induced resistance-related genes of pine tree used in this invention were listed in the below and elongation factor_1 alpha were used as a reference gene. […] The primer list of defense resistance-related genes
After the treatment with 200 µg / mℓ of candidates of the selected induced resistance material, expression of the induced resistance-related gene in pine callus was determined by qRT-PCR using the primer pairs of defense resistance-related genes in Table 4. As a candidate group of an induced resistance material in pine tree, acibenzolar-S-methyl (ASM), TDL (Tiadinil), ITL (Isotianil), PBZ (Probenzole), AZO (Azoxystrobin), VMA (Validamycin A), MeJA (Methyl jasmonate), BABA (DL-3-aminobutyric acid), 2,3-BDO (2,3-Butanediol), GABA (r-Aminobutyric acid), glucan (Glucan), ER (Ergosterol), and AZA (Azelaic acid) were used. For the in vitro analysis of the expression of induced resistance gene in pine callus, the selected induced resistance materials were applied with 500 µℓ of LM liquid medium on a surface of pine tree callus (100 mg) in 12-well microplate to give final concentration of 200 µg/mℓ. Then, the callus surface was sufficiently reacted for 24 hours with the candidate of pine tree induced resistance material by shaking at 50 rpm in a 25 °C shaking incubator under dark condition. RNAs were extracted from the callus after completion of the reaction with an induced resistance material, followed by synthesis of cDNAs. Then, by carrying out qRT-PCR, the expression of induced resistance genes was determined.
Thus, the following tests were carried out using acibenzolar-S-methyl only. Expression of the induced resistance genes at different culture time after the chemical treatment was examined. For the in vitro assay, LM medium containing pine tree callus was treated with acibenzolar-S-methyl at concentration of 200 µg / mℓ, followed by reaction for 1 day, 7 days, or 14 days in a 25°C shaking incubator under dark condition. RNAs were extracted from the callus after the reaction followed by synthesis of cDNAs. Then, by carrying out qRT-PCR, the expression of the induced resistance genes was determined. Depending on reaction time after the treatment, i.e., after 1 day, 7 days, or 14 days, the expression of the obtained induced resistance genes was examined. […]
For the surface treatment (spraying treatment) of pine tree callus, 100 mg of the pine tree callus were dunked in 500 µℓ LM liquid medium and 500 µℓ of 400 µg/mℓ acibenzolar-S-methyl were sprayed (i.e., sprayed 5 times, 100 µℓ for each spraying, 200 µg/mℓ) on the callus surface. Then, the pine callus sprayed with acibenzolar-S-methyl was reacted for 24 hours by shaking at 50 rpm in a 25°C shaking incubator under dark condition. After the completion of the 24-hour reaction, RNAs were extracted from the callus followed by synthesis of cDNAs. Then, by carrying out qRT-PCR, expression of the induced resistance gene was determined.

Cc1ccc(NC(=O)c2snnc2C)cc1Cl [TDL, Tiadinil]
Occurrence rate of pine wilt disease: Number of pine trees showing wilt symptoms / Number of pine trees used for the test ([1]; 2 µg/mℓ): 3/3 | Occurrence rate of pine wilt disease: Number of pine trees showing wilt symptoms / Number of pine trees used for the test ([1]; 20 µg/mℓ): 2/3 | Occurrence rate of pine wilt disease: Number of pine trees showing wilt symptoms / Number of pine trees used for the test ([1]; 200 µg/mℓ): 1/3 | Number of pine trees showing wilt symptoms only at growing points of a stem ([1]; 2 µg/mℓ): 3 | Number of pine trees showing wilt symptoms only at growing points of a stem ([1]; 20 µg/mℓ): 2 | Number of pine trees showing wilt symptoms only at growing points of a stem ([1]; 200 µg/mℓ): 1 | Expression of induced resistance gene, Cytochrome_P450 ([2]; 200 µg/mℓ): 0.91

OCC1=C[C@@H](N[C@H]2C[C@H](CO)[C@@H](O[C@H]3O[C@@H](CO)[C@H](O)[C@@H](O)[C@@H]3O)[C@H](O)[C@H]2O)[C@H](O)[C@@H](O)[C@@H]1O [VMA, Validamycin A]
Occurrence rate of pine wilt disease: Number of pine trees showing wilt symptoms / Number of pine trees used for the test ([1]; 2 µg/mℓ): 2/3 | Occurrence rate of pine wilt disease: Number of pine trees showing wilt symptoms / Number of pine trees used for the test ([1]; 20 µg/mℓ): 1/3 | Occurrence rate of pine wilt disease: Number of pine trees showing wilt symptoms / Number of pine trees used for the test ([1]; 200 µg/mℓ): 2/3 | Number of pine trees showing wilt symptoms only at growing points of a stem ([1]; 2 µg/mℓ): 2 | Number of pine trees showing wilt symptoms only at growing points of a stem ([1]; 20 µg/mℓ): 1 | Number of pine trees showing wilt symptoms only at growing points of a stem ([1]; 200 µg/mℓ): 1 | Expression of induced resistance gene, Cytochrome_P450 ([2]; 200 µg/mℓ): 1.17

NCCCC(=O)O [GABA, r-Aminobutyric acid]
Occurrence rate of pine wilt disease: Number of pine trees showing wilt symptoms / Number of pine trees used for the test ([1]; 2 µg/mℓ): 3/3 | Occurrence rate of pine wilt disease: Number of pine trees showing wilt symptoms / Number of pine trees used for the test ([1]; 20 µg/mℓ): 1/3 | Occurrence rate of pine wilt disease: Number of pine trees showing wilt symptoms / Number of pine trees used for the test ([1]; 200 µg/mℓ): 0/3 | Number of pine trees showing wilt symptoms only at growing points of a stem ([1]; 2 µg/mℓ): 1 | Number of pine trees showing wilt symptoms only at growing points of a stem ([1]; 20 µg/mℓ): 1 | Expression of induced resistance gene, Cytochrome_P450 ([2]; 200 µg/mℓ): 2.41

O=C(O)CCCCCCCC(=O)O [AZA, Azelaic acid]
Occurrence rate of pine wilt disease: Number of pine trees showing wilt symptoms / Number of pine trees used for the test ([1]; 2 µg/mℓ): 2/3 | Occurrence rate of pine wilt disease: Number of pine trees showing wilt symptoms / Number of pine trees used for the test ([1]; 20 µg/mℓ): 2/3 | Occurrence rate of pine wilt disease: Number of pine trees showing wilt symptoms / Number of pine trees used for the test ([1]; 200 µg/mℓ): 2/3 | Number of pine trees showing wilt symptoms only at growing points of a stem ([1]; 20 µg/mℓ): 1 | Number of pine trees showing wilt symptoms only at growing points of a stem ([1]; 200 µg/mℓ): 2 | Expression of induced resistance gene, Cytochrome_P450 ([2]; 200 µg/mℓ): 1.05

CSC(=O)c1cccc2nnsc12 [ASM, acibenzolar-S-methyl]
Occurrence rate of pine wilt disease: Number of pine trees showing wilt symptoms / Number of pine trees used for the test ([1]; 2 µg/mℓ): 1/3 | Occurrence rate of pine wilt disease: Number of pine trees showing wilt symptoms / Number of pine trees used for the test ([1]; 20 µg/mℓ): 1/3 | Occurrence rate of pine wilt disease: Number of pine trees showing wilt symptoms / Number of pine trees used for the test ([1]; 200 µg/mℓ): 0/3 | Number of pine trees showing wilt symptoms only at growing points of a stem ([1]; 2 µg/mℓ): 1 | Number of pine trees showing wilt symptoms only at growing points of a stem ([1]; 20 µg/mℓ): 1 | Expression of induced resistance gene, Cytochrome_P450 ([2]; 200 µg/mℓ): 1.71 | Expression of induced resistance gene, Cytochrome_P450 ([2]; 200 µg/mℓ, Direct supplying as a medium component): 9.99 | Expression of induced resistance gene, Cytochrome_P450 ([2]; 200 µg/mℓ, Spraying): 1.71 | Gene expression level, Cytochrome_P450 ([2]; 200 µg/mℓ, After 1 day): 7.21 | Gene expression level, Cytochrome_P450 ([2]; 200 µg/mℓ, After 7 days): 0.85 | Gene expression level, Cytochrome_P450 ([2]; 200 µg/mℓ, After 14 days): 0.04 | Gene expression level, Cytochrome_P450 ([2]; concentration series, 2 µg/mℓ): 1.231 | Gene expression level, Cytochrome_P450 ([2]; concentration series, 20 µg/mℓ): 1.173 | Gene expression level, Cytochrome_P450 ([2]; concentration series, 200 µg/mℓ): 1.231

CO/C=C(/C(=O)OC)c1ccccc1Oc1cc(Oc2ccccc2C#N)ncn1 [AZO, Azoxystrobin]
Occurrence rate of pine wilt disease: Number of pine trees showing wilt symptoms / Number of pine trees used for the test ([1]; 2 µg/mℓ): 0/3 | Occurrence rate of pine wilt disease: Number of pine trees showing wilt symptoms / Number of pine trees used for the test ([1]; 20 µg/mℓ): 2/2 | Occurrence rate of pine wilt disease: Number of pine trees showing wilt symptoms / Number of pine trees used for the test ([1]; 200 µg/mℓ): 2/3 | Number of pine trees showing wilt symptoms only at growing points of a stem ([1]; 20 µg/mℓ): 1 | Number of pine trees showing wilt symptoms only at growing points of a stem ([1]; 200 µg/mℓ): 2 | Expression of induced resistance gene, Cytochrome_P450 ([2]; 200 µg/mℓ): 1.17

N#Cc1ccccc1NC(=O)c1snc(Cl)c1Cl [ITL, Isotianil]
Occurrence rate of pine wilt disease: Number of pine trees showing wilt symptoms / Number of pine trees used for the test ([1]; 2 µg/mℓ): 2/3 | Occurrence rate of pine wilt disease: Number of pine trees showing wilt symptoms / Number of pine trees used for the test ([1]; 20 µg/mℓ): 2/3 | Occurrence rate of pine wilt disease: Number of pine trees showing wilt symptoms / Number of pine trees used for the test ([1]; 200 µg/mℓ): 1/3 | Number of pine trees showing wilt symptoms only at growing points of a stem ([1]; 2 µg/mℓ): 1 | Number of pine trees showing wilt symptoms only at growing points of a stem ([1]; 20 µg/mℓ): 2 | Number of pine trees showing wilt symptoms only at growing points of a stem ([1]; 200 µg/mℓ): 1 | Expression of induced resistance gene, Cytochrome_P450 ([2]; 200 µg/mℓ): 0.98

CC(C)[C@@H](C)/C=C/[C@@H](C)[C@H]1CC[C@H]2C3=CC=C4C[C@@H](O)CC[C@]4(C)[C@H]3CC[C@]12C [ER, Ergosterol]
Occurrence rate of pine wilt disease: Number of pine trees showing wilt symptoms / Number of pine trees used for the test ([1]; 2 µg/mℓ): 3/3 | Occurrence rate of pine wilt disease: Number of pine trees showing wilt symptoms / Number of pine trees used for the test ([1]; 20 µg/mℓ): 0/3 | Occurrence rate of pine wilt disease: Number of pine trees showing wilt symptoms / Number of pine trees used for the test ([1]; 200 µg/mℓ): 1/3 | Number of pine trees showing wilt symptoms only at growing points of a stem ([1]; 2 µg/mℓ): 1 | Expression of induced resistance gene, Cytochrome_P450 ([2]; 200 µg/mℓ): 1.06

C=CCOC1=NS(=O)(=O)c2ccccc21 [PBZ, Probenzole]
Occurrence rate of pine wilt disease: Number of pine trees showing wilt symptoms / Number of pine trees used for the test ([1]; 2 µg/mℓ): 2/3 | Occurrence rate of pine wilt disease: Number of pine trees showing wilt symptoms / Number of pine trees used for the test ([1]; 20 µg/mℓ): 0/3 | Occurrence rate of pine wilt disease: Number of pine trees showing wilt symptoms / Number of pine trees used for the test ([1]; 200 µg/mℓ): 1/3 | Number of pine trees showing wilt symptoms only at growing points of a stem ([1]; 2 µg/mℓ): 1 | Number of pine trees showing wilt symptoms only at growing points of a stem ([1]; 200 µg/mℓ): 1 | Expression of induced resistance gene, Cytochrome_P450 ([2]; 200 µg/mℓ): 1.06

CC/C=C\CC1C(=O)CCC1CC(=O)OC (centres unmarked) [MeJA, Methyl jasmonate]
Occurrence rate of pine wilt disease: Number of pine trees showing wilt symptoms / Number of pine trees used for the test ([1]; 2 µg/mℓ): 3/3 | Occurrence rate of pine wilt disease: Number of pine trees showing wilt symptoms / Number of pine trees used for the test ([1]; 20 µg/mℓ): 2/3 | Occurrence rate of pine wilt disease: Number of pine trees showing wilt symptoms / Number of pine trees used for the test ([1]; 200 µg/mℓ): 2/3 | Number of pine trees showing wilt symptoms only at growing points of a stem ([1]; 2 µg/mℓ): 1 | Number of pine trees showing wilt symptoms only at growing points of a stem ([1]; 20 µg/mℓ): 1 | Number of pine trees showing wilt symptoms only at growing points of a stem ([1]; 200 µg/mℓ): 2 | Expression of induced resistance gene, Cytochrome_P450 ([2]; 200 µg/mℓ): 0.3

Source: patent EP3685668B1, “COMPOSITION COMPRISING ACIBENZOLAR-S-METHYL AS EFFECTIVE INGREDIENT FOR CONTROLLING BURSAPHELENCHUS XYLOPHILUS DISEASE AND METHOD FOR CONTROLLING BURSAPHELENCHUS XYLOPHILUS USING SAME” (Industry Foundation of Chonnam National University, priority 2017, dated 2019)
